Experimental data published in PMC8217266 (Clinical Pharmacology and Therapeutics, 2021).

Legend:
[1] = molecular target: T1, BCRP (Homo sapiens, UniProt Q9UNQ0); test: biochemical
T1 sequence (Q9UNQ0 1-655): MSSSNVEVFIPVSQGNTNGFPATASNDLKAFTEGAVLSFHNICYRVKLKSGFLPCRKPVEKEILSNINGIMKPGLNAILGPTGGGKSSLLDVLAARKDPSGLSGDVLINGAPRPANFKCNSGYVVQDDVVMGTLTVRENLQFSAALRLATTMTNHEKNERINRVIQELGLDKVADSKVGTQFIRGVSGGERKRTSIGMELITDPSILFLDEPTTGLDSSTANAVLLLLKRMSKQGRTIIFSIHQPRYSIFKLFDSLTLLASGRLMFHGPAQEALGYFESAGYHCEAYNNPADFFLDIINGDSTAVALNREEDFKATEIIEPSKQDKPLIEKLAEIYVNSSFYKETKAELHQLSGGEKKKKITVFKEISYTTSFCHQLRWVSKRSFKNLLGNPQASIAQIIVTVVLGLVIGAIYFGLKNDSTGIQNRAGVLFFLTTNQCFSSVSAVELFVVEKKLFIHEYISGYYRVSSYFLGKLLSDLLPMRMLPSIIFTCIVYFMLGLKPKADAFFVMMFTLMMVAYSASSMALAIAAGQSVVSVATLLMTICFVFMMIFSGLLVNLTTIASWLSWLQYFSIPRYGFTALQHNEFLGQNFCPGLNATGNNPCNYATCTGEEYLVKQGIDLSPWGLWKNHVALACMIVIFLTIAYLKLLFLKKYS

[2] = molecular target: T2, human MATE1 (Homo sapiens, UniProt Q96FL8)
T2 sequence (Q96FL8 1-570): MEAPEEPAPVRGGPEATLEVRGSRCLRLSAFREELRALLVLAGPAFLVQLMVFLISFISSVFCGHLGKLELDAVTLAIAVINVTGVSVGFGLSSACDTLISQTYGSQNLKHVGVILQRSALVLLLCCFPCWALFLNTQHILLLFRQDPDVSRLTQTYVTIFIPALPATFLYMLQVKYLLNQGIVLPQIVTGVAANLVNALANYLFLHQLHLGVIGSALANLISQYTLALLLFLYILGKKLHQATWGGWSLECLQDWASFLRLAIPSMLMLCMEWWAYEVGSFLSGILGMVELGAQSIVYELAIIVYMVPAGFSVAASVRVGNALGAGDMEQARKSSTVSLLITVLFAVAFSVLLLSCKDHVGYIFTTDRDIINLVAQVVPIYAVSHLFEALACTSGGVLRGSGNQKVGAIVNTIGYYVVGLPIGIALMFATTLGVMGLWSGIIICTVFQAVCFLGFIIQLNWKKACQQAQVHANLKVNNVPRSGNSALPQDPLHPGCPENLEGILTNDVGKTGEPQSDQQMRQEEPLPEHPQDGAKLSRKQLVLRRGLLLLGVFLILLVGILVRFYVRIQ

[3] = molecular target: T3, human OAT3 (Homo sapiens, UniProt Q8TCC7); test: cell-based
T3 sequence (Q8TCC7 1-542): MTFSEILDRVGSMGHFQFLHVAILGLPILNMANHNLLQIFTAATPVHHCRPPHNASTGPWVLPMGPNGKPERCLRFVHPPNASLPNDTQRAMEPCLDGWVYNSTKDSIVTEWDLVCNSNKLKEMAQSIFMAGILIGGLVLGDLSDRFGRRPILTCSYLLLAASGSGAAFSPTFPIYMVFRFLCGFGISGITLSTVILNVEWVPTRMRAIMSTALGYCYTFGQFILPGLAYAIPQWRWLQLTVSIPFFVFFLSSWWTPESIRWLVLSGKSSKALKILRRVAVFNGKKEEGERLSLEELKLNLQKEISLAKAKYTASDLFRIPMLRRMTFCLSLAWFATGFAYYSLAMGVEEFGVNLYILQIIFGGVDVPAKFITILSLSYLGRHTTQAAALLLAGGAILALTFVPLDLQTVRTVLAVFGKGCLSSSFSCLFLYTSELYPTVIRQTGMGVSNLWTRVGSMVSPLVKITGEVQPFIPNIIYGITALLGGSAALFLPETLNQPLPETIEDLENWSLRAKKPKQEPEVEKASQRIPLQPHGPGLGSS

[4] = molecular target: T2, human MATE1; test: cell-based
[5] = tested on: transporters at major organ sites; test: Prediction of transporter-mediated inhibition / DDI potential; set-up: species or system human; settings: of 11 transporters; FDA criteria
[6] = molecular target: T3, human OAT3; settings: for Cu,max/IC50 OAT3: human
[7] = molecular target: T4, human OCT1 (Homo sapiens, UniProt O15245); test: cell-based
T4 sequence (O15245 1-554): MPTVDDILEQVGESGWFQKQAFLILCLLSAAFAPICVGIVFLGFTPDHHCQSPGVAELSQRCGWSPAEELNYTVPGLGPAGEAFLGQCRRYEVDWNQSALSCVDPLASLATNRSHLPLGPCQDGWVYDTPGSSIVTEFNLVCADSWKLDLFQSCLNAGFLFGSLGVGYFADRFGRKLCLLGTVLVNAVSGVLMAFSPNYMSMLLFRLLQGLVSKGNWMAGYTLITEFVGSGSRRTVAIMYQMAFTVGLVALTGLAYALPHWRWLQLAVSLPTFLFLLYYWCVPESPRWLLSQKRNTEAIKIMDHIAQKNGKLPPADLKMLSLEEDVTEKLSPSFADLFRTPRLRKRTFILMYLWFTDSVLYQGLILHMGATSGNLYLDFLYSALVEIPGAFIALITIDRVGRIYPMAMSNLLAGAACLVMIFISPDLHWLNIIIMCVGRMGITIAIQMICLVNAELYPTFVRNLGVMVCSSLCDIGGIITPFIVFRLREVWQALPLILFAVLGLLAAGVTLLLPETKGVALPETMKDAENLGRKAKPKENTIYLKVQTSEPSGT

[8] = molecular target: human MATE2 (Homo sapiens, UniProt Q86VL8); test: cell-based
Chain of human MATE2 (Q86VL8 1-566 isoform Q86VL8-3): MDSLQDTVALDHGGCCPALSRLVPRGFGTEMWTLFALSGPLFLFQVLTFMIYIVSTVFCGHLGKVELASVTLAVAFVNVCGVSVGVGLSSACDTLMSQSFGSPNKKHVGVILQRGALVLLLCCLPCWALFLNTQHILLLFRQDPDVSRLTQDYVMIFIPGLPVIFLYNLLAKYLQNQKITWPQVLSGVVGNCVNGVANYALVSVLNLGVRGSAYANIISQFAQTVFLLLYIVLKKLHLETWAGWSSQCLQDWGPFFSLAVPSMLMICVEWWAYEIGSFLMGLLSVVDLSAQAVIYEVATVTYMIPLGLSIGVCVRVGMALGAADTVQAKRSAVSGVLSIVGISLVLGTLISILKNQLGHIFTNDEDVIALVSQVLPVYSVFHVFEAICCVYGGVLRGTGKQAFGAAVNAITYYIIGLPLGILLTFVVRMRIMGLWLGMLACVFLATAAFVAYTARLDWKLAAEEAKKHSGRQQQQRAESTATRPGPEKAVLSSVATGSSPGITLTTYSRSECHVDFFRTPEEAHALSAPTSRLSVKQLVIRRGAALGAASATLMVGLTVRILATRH

SMILES	IC50 [1]	Cu,max/IC50 MATE1 [2]	IC50 [3]	IC50 [4]	No. of transporters at major organ sites inhibited at clinical concentrations [5]	OAT3 inhibited more potently relative to OAT1 [6]	Cu,max/IC50 OAT3 [6]	IC50 [7]	IC50 [8]
N#CC[C@H](C1CCCC1)n1cc(-c2ncnc3[nH]ccc23)cn1 [Ruxolitinib]	> 100 µM	0.04	6.1 ± 0.6 µM	0.7 ± 0.01 µM	1	≥ 10 fold	0.005	9.7 ± 4.3 µM	3.7 ± 2.3 µM
CCOC(=O)c1c(CSc2ccccc2)n(C)c2cc(Br)c(O)c(CN(C)C)c12 [Umifenovir (Arbidol), Umifenovir]	> 100 µM	0.13	58.6 ± 21.9 µM	0.7 ± 0.2 µM	6		0.002	1.2 ± 0.1 µM	4.1 ± 1.6 µM
CCC(CC)COC(=O)[C@H](C)N[P@](=O)(OC[C@H]1O[C@@](C#N)(c2ccc3c(N)ncnn23)[C@H](O)[C@@H]1O)Oc1ccccc1 [Remdesivir]	25 ± 6 µM		14 ± 1.7 µM	0.4 ± 0.1 µM	4			10.1 ± 0.01 µM	15.2 ± 9.7 µM
CCCc1nn(C)c2c(=O)[nH]c(-c3cc(S(=O)(=O)N4CCN(C)CC4)ccc3OCC)nc12 [Sildenafil]	3.1 ± 2.5 µM	0.02	20.5 ± 3.1 µM	2.4 ± 0.1 µM	4	≥ 10 fold	0.002	19.8 ± 6.4 µM	14.4 ± 1.3 µM
CC(C)CN(C[C@@H](O)[C@H](Cc1ccccc1)NC(=O)O[C@H]1CO[C@H]2OCC[C@H]21)S(=O)(=O)c1ccc(N)cc1 [Darunavir]	> 100 µM		37.9 ± 9.5 µM	43.8 ± 14.4 µM	5				30.7 ± 20.2 µM
